# How the values were obtained:
# crab-eating macaques = experiment: Effects on intraocular pressure (air-puff applanation tonometer, ketamine anesthesia); type: in vivo; settings: for Change in ocular pressure after application: average of 8 subjects, relative to initial intraocular pressure
# Experimental: The effect of a compound of the present invention on intraocular pressure was studied in accordance with the method disclosed in a report of a study on the effect of the tromethamine salt and the isopropyl ester of PGF2α on intraocular pressure in crab-eating macaques (Exp. Eye Res., 61, 677-683 (1995)).
# Male crab-eating macaques weighing from 5 to 7.5 kg (5-10 years old) were used in the test. The intraocular pressures were measured just before and 2, 4 and 6 hours after application of the test compound under ketamine anesthasia (5-10 mg/kg, intramuscular administration) by means of an air-puff applanation tonometer.
# The results of application of 0.1% (w/v) ophthalmic solution containing Latanoprost (reference pharmaceutical 1), which is known as a therapeutic agent for glaucoma are also shown in Table 1.
# Japanese white rabbits = experiment: Test on eye irritations: conditions of the front of the eye, scores by improved Draize method; type: in vivo; settings: for Condition of nictitating membrane / Edema of eyelid conjunctiva / Iridial congestion / Opacity of the cornea / Opaque fraction of the cornea / Rubor of eyelid conjunctiva / Rubor of supraocular conjunctiva / Secretions / Total score: ten times at 30 minute intervals; for Total score: sum of the scores; for scored in total, as much as Latanoprost did: ratio of total scores, Table 2 to Table 3
# Experimental: The eye irritation caused by a compound of the present invention was investigated in accordance with the method of Fukui et al. ("[…]-no-rinsho", 4277-89 (1970)). Male Japanese white rabbits weighing about 2.5 kg were used in the test. A test compound was applied into the conjunctival sac of a right eye ten times at 30 minute intervals. The conditions of the front and the anterior chamber of the eye were observed just before and 1, 2 and 4 hours after the final application, and the damage to the cornea was observed 4 hours after the final application. Into the conjunctival sac of a left eye, the base only, which was free from the test compound, was applied. A) Conditions of the front of the eye: Scores were determined on the basis of the following scale of damage to the eye according to the improved Draize method. • a) Opacity • No cloud (normal); 0 • Scattered clouds in pervasive regions (the details of the iris are clearly visible); 1 • Easily distinguishable translucent regions (details of the iris are not visible so clearly); 2 • Opaque regions, details of the iris are invisible, and the size of the pupil is barely recognizable; 3 • Unclear, the iris is invisible; 4 • b) The size of the region of the cornea falling into the above • None; 0 • More than 0 and not more than 1/4; 1 • More than 1/4 and less than 1/2; 2 • More than 1/2 and less than 3/4; 3 • More than 3/4 and all over; 4 • Normal; 0 • More […], stasis, swelling, congestion around the cornea than normal (any or combinations of them), the iris is still responsive to light (positive for slow reaction); 1 • Irresponsible to light, and bleeding and apparent destruction (any or all of them); 2 • a) Rubor of the eyelid conjunctiva • No congestion; 0 • Slightly reddish mucosae and slight but recognizable vasodilation of the edge of the eyelid; 0.5 • Clearly abnormal congestion, appreciably red mucosae and remarkable swelling; 1 • Pretty remarkably red ocular mucosae and slightly unclear peripheral vessels; 2 • More intense conditions than 2 and pervasive beef-like rubor; 3 • b) Edema of the eyelid conjunctiva • Not swollen; 0 • Slight tendency of edema; 0.5 • More swollen than normal; 1 • Apparently swollen together with part of the integument of the eyelid; 2 • Swollen with about half of the eyelid sagging; 3 • Swollen with about half to all of the eyelid sagging; 4 • c) Rubor of the supraocular conjunctiva • No congestion; 0 • Slight vasodilation around the cornea; 0.5 • More remarkable vasodilation; 1 • Remarkable vasodilation toward the edge of the eyelid or remarkable rubor; 2 • d) Condition of the nictitating membrane • No congestion; 0 • Recognizable vasodilation and tendency of edema; 0.5 • More appreciable vasodilation and rubor of the edge of the eyelid; 1 • Extreme vasodilation and remarkable rubor of the entire nictitating membrane; 2 • e) Secretions • No secretions; 0 • A certain amount more than normal (exclusive of small amount of secretions found at the medial angle of the eye of a normal animal); 1 • Some secretions with a wet eyelid and neighboring fur; 2 • Some secretions with a wet eyelid and a large area of wet fur around the eye; 3 • B) Conditions of the anterior chamber: After the observation of the front of the eye, the inside of the anterior chamber was checked for flares under a slit lamp. • C) Damage to the cornea: After observation of the conditions of the front and anterior chamber of the eye 4 hours after the final application, the cornea was stained with fluorescein, and the remaining dye on the cornea was observed under a slit lamp. […] Further, to comprehensively evaluate damage to the front of the eye, the sum of the scores was calculated as a total score.
# [1] = tested on: smooth muscle in the respiratory system; settings: Izv. Akad. Nauk SSSR, Ser. Biol., 6, 831 (1989); cited from earlier work
# [2] = tested on: smooth muscle in the digestive and circulatory systems; settings: Izv. Akad. Nauk SSSR, Ser. Biol., 6, 831 (1989); cited from earlier work
# [3] = 2 hours, 20 µℓ of 0.1% (w/v) ophthalmic solution
# [4] = 4 hours, 20 µℓ of 0.1% (w/v) ophthalmic solution
# [5] = 6 hours, 20 µℓ of 0.1% (w/v) ophthalmic solution
# [6] = After 1 hr, 0.1% (w/v) ophthalmic solution (reference pharmaceutical 1)
# [7] = After 2 hrs, 0.1% (w/v) ophthalmic solution (reference pharmaceutical 1)
# [8] = After 4 hrs, 0.1% (w/v) ophthalmic solution (reference pharmaceutical 1)
# [9] = After 1 hr, 0.01% (w/v) ophthalmic solution (pharmaceutical 3), 50 µℓ, average of three subjects
# [10] = After 2 hrs, 0.01% (w/v) ophthalmic solution (pharmaceutical 3), 50 µℓ, average of three subjects
# [11] = After 4 hrs, 0.01% (w/v) ophthalmic solution (pharmaceutical 3), 50 µℓ, average of three subjects
compound,measurement,setting,value
"CC(C)OC(=O)CCC/C=C\C[C@@H]1[C@@H](CC[C@@H](O)CCc2ccccc2)[C@H](O)C[C@@H]1O [Latanoprost, 13,14-dihydro-17-phenyl-18,19,20-trinor PGF2α isopropyl ester, reference compound]",Change in ocular pressure after application,crab-eating macaques; [3],-0.6 mmHg
same,Change in ocular pressure after application,crab-eating macaques; [4],-2.6 mmHg
same,Change in ocular pressure after application,crab-eating macaques; [5],-2.3 mmHg
same,Condition of nictitating membrane,Japanese white rabbits; [6],0.3
same,Edema of eyelid conjunctiva,Japanese white rabbits; [6],0
same,Iridial congestion,Japanese white rabbits; [6],0
same,Opacity of the cornea,Japanese white rabbits; [6],0
same,Opaque fraction of the cornea,Japanese white rabbits; [6],0
same,Rubor of eyelid conjunctiva,Japanese white rabbits; [6],0.5
same,Rubor of supraocular conjunctiva,Japanese white rabbits; [6],0.8
same,Secretions,Japanese white rabbits; [6],0.3
same,Condition of nictitating membrane,Japanese white rabbits; [7],0.3
same,Edema of eyelid conjunctiva,Japanese white rabbits; [7],0
same,Iridial congestion,Japanese white rabbits; [7],0
same,Opacity of the cornea,Japanese white rabbits; [7],0
same,Opaque fraction of the cornea,Japanese white rabbits; [7],0
same,Rubor of eyelid conjunctiva,Japanese white rabbits; [7],0.5
same,Rubor of supraocular conjunctiva,Japanese white rabbits; [7],0.8
same,Secretions,Japanese white rabbits; [7],0
same,Condition of nictitating membrane,Japanese white rabbits; [8],0.3
same,Edema of eyelid conjunctiva,Japanese white rabbits; [8],0
same,Iridial congestion,Japanese white rabbits; [8],0
same,Opacity of the cornea,Japanese white rabbits; [8],0
same,Opaque fraction of the cornea,Japanese white rabbits; [8],0
same,Rubor of eyelid conjunctiva,Japanese white rabbits; [8],0
same,Rubor of supraocular conjunctiva,Japanese white rabbits; [8],0.3
same,Secretions,Japanese white rabbits; [8],0
same,Total score,Japanese white rabbits; [6],1.9
same,Total score,Japanese white rabbits; [7],1.6
same,Total score,Japanese white rabbits; [8],0.6
"CC(C)OC(=O)CCC/C=C\C[C@@H]1[C@@H](/C=C/C(F)COc2cc(Cl)cc(Cl)c2)[C@H](O)C[C@@H]1O (single isomer, unassigned) [Compound A, 16-(3,5-dichlorophenoxy)-15-deoxy-15-fluoro-17,18,19,20-tetranorprostaglandin F2α isopropyl ester]",Change in ocular pressure after application,"crab-eating macaques; 2 hours, 20 µℓ of 0.01% (w/v) ophthalmic solution",-0.8 mmHg
same,Change in ocular pressure after application,crab-eating macaques; [3],-1.0 mmHg
same,Change in ocular pressure after application,"crab-eating macaques; 4 hours, 20 µℓ of 0.01% (w/v) ophthalmic solution",-1.8 mmHg
same,Change in ocular pressure after application,crab-eating macaques; [4],-1.4 mmHg
same,"lowered the intraocular pressure, times as much as Latanoprost",crab-eating macaques; 6 hours after application,about 1.5 times
same,Change in ocular pressure after application,"crab-eating macaques; 6 hours, 20 µℓ of 0.01% (w/v) ophthalmic solution",-3.0 mmHg
same,Change in ocular pressure after application,crab-eating macaques; [5],-3.6 mmHg
same,"scored in total, as much as Latanoprost did",Japanese white rabbits; 1 hour after application,about 1/5
same,"scored in total, as much as Latanoprost did",Japanese white rabbits; 2 hours after application,1/2
same,"scored in total, as much as Latanoprost did",Japanese white rabbits; 4 hours after application,1/3
same,Condition of nictitating membrane,Japanese white rabbits; [9],0.2
same,Edema of eyelid conjunctiva,Japanese white rabbits; [9],0
same,Iridial congestion,Japanese white rabbits; [9],0
same,Opacity of the cornea,Japanese white rabbits; [9],0
same,Opaque fraction of the cornea,Japanese white rabbits; [9],0
same,Rubor of eyelid conjunctiva,Japanese white rabbits; [9],0
same,Rubor of supraocular conjunctiva,Japanese white rabbits; [9],0.2
same,Secretions,Japanese white rabbits; [9],0
same,Condition of nictitating membrane,Japanese white rabbits; [10],0.2
same,Edema of eyelid conjunctiva,Japanese white rabbits; [10],0
same,Iridial congestion,Japanese white rabbits; [10],0
same,Opacity of the cornea,Japanese white rabbits; [10],0
same,Opaque fraction of the cornea,Japanese white rabbits; [10],0
same,Rubor of eyelid conjunctiva,Japanese white rabbits; [10],0.2
same,Rubor of supraocular conjunctiva,Japanese white rabbits; [10],0.5
same,Secretions,Japanese white rabbits; [10],0
same,Condition of nictitating membrane,Japanese white rabbits; [11],0
same,Edema of eyelid conjunctiva,Japanese white rabbits; [11],0
same,Iridial congestion,Japanese white rabbits; [11],0
same,Opacity of the cornea,Japanese white rabbits; [11],0
same,Opaque fraction of the cornea,Japanese white rabbits; [11],0
same,Rubor of eyelid conjunctiva,Japanese white rabbits; [11],0
same,Rubor of supraocular conjunctiva,Japanese white rabbits; [11],0.2
same,Secretions,Japanese white rabbits; [11],0
same,Total score,"Japanese white rabbits; After 1 hr, 0.01% (w/v) ophthalmic solution (pharmaceutical 3), 50 µℓ",0.4
same,Total score,"Japanese white rabbits; After 2 hrs, 0.01% (w/v) ophthalmic solution (pharmaceutical 3), 50 µℓ",0.9
same,Total score,"Japanese white rabbits; After 4 hrs, 0.01% (w/v) ophthalmic solution (pharmaceutical 3), 50 µℓ",0.2
same,irritation of the front of the eye,"Japanese white rabbits; when applied to the eye, slight congestion of the conjunctiva was observed",little irritant
"CCCCCC(F)/C=C/[C@@H]1[C@@H](C/C=C\CCCC(=O)O)[C@@H](O)C[C@H]1O (stereo partly drawn) [15-Fluoro-15-deoxy PGF2α, 15-fluoro-15-deoxy PGF2α]",contraction action on smooth muscle in the respiratory system as compared with the naturally occurring PGF2α,[1],100 fold
same,relaxation action on smooth muscle in the respiratory system as compared with the naturally occurring PGF2α,[1],1000 fold
same,action on the smooth muscle in the digestive and circulatory systems relative to the naturally occurring PGF2α,[2],comparable
